Experimental data as given in paper PMC6680770, “Effect of Ticagrelor, a Cytochrome P450 3A4 Inhibitor, on the Pharmacokinetics of Tadalafil in Rats” (Pharmaceutics, 2019).
“And” between values parts separate entries of the source, which are not always exact repeats. Equal values may be shown once. Read-outs that look alike come from different tables or passages of the source.

Key:
[1] = Pharmacokinetic study of tadalafil after oral administration to non-pretreated and ticagrelor-pretreated rats, non-compartment analysis; type: in vivo, Sprague-Dawley rats; settings: tadalafil 2 mg/kg oral; for Cmax / AUC(0-inf) / CL/F / Tmax / half-life / AUC(0-t): Sprague-Dawley, rat, plasma, po, 2 mg/kg, mean ± SD, n = 10; for AUC(0-t): read-out: AUC0–24
Experimental: The concentrations of tadalafil were analyzed by a liquid chromatography tandem-mass spectrometry (LC-MS/MS) system equipped with Agilent 1290 series and Agilent 6495 Triple Quad LC/MS (Agilent Technologies, Santa Clara, CA, USA). A YMC-Triart C18 column (50 × 2.0 mm, 1.9 µm; YMC Inc., Wilmington, NC, USA) was used. The mobile phase was a mixture of 0.2% formic acid in acetonitrile and 0.2% formic acid in distilled water (50:50, v/v), and the flow rate was 0.4 mL/min. The temperature of the column and autosampler were set as 30 °C and 4 °C, respectively. The positive ion mode using Agilent jet stream electrospray ionization (AJS-ESI) was applied to record the scan mass spectra. The ion transitions of tadalafil and IS were set as 390.4→268.1 m/z and 876.4→308.1 m/z, respectively, and detected with a multiple reaction monitoring (MRM) mode. The collision energies for tadalafil and IS were 10 V and 30 V, respectively. The cell accelerator voltage was 5 V and the dwell time was set as 200 ms. The source parameters were set as follows: Gas temperature 200 °C, gas flow 14 L/min, nebulizer 20 psi, sheath gas heater 250 °C, sheath gas flow 11 L/min, capillary 3000 V, and nozzle voltage 1500 V.
(§1) The experiment was performed in a parallel design. A total of 20 rats were randomly divided into two groups. The control group, Group N (n = 10, non-pretreated rats), was orally administered for 7 days only with the vehicle (normal saline/polyethylene glycol 400/dimethyl sulfoxide = 40:20:20). Group T (n = 10, ticagrelor-pretreated rats), an experimental group, received 10 mg/kg of ticagrelor in the vehicle once a day for 7 days orally. Thereafter, on the seventh day, tadalafil (2 mg/kg) was orally administered 30 min after the final administration of the vehicle or ticagrelor. Doses of all samples were calculated according to the weight of the rats and administered using gavage. The dose of ticagrelor and tadalafil given to rats were determined by converting the human doses (90 mg for ticagrelor and 20 mg for tadalafil) to animal doses with body surface area, according to the United States Food and Drug Administration guidelines. Blood (0.3 mL) was collected from the retro-orbital plexus or the jugular vein at predetermined time-points (0, 0.33, 0.67, 1, 1.5, 2, 4, 6, 8, 12, and 24 h) after the oral administration. Samples were centrifuged at 15,000× g for 5 min at 4 °C. The plasma was collected and stored at −20 °C until the concentration of tadalafil was analyzed by LC-MS/MS.
Protein precipitation was applied to extract tadalafil from plasma. Briefly, 200 µL of acetonitrile (0.2 v/v% formic acid) containing 500 ng/mL of IS was added to 20 µL of the plasma sample. After shaking for 5 min, the mixture was centrifuged at 15,000× g for 5 min. The supernatant (150 µL) was transferred and 5 µL of the sample was injected into the LC-MS/MS.
Pharmacokinetic data were analyzed based on the non-compartment analysis of WinNonlin software 8.1 (Pharsight Corp., Sunnyvale, CA, USA). The maximum plasma concentration of tadalafil (maximum concentration (Cmax)) and the time to reach the maximal plasma concentration (Tmax) of tadalafil were determined from the plasma concentration-time profiles. The area under the plasma concentration vs time curve from 0 to 24 h (AUC0–24) was calculated by the linear trapezoidal rule and the area under the plasma concentration vs time curve from 0 h to infinite time (AUC0–∞) was estimated by extrapolating time to infinity. The elimination half-life (T1/2) and apparent total clearance (CL/F) were determined from the ln 2/elimination rate constant and dose/AUC0–∞, respectively.

[2] = One-compartment pharmacokinetic modeling of the plasma concentration-time profile of tadalafil; type: in vivo, Sprague-Dawley rats; settings: one-compartment model; for k el: Sprague-Dawley, rat, plasma, read-out: Ke (converted); for k el / Ka / V/F: tadalafil 2 mg/kg oral, mean ± SD, n = 10
Experimental: as §1
Pharmacokinetic modeling of the plasma concentration-time profile of tadalafil was performed using a one-compartment model to investigate the absorption and elimination rates. The parameters of the one-compartment model of tadalafil were estimated based on data from Group N and Group T.
In this model, the shift of the tadalafil amount in the gut compartment and the central compartment is described by the following equations [33]: dG/dt= −Ka·G dC/dt=Ka·G−Ke·C where G and C represent the amount of tadalafil in the gut compartment and the central compartment, respectively. Ka indicates the absorption rate constant from the gut compartment to the central compartment. Ke indicates the elimination rate constant from the central compartment […]. Each equation was applied to both Group N and Group T data through the classic model of WinNolin software 8.1 (Pharsight Corp., Sunnyvale, CA, USA).
Predicted plasma concentrations of tadalafil (Conpred) using the one-compartment model were estimated by the following equation [34]: Conpred= C/(V/F) where V/F indicates the central volume of distribution of tadalafil.

[3] = design: method as in PMID 14622499; settings: cited from earlier work
[4] = longer than sildenafil or vardenafil; cited from earlier work
CYP3A = assay: Classification of ticagrelor as CYP3A inhibitor from changes in tadalafil AUC and clearance; type: in vivo; settings: weak inhibitor = increases AUC of CYP substrate 1.25-fold to 2-fold or reduces clearance by 20–50%; inferred from tadalafil AUC (1.61-fold) and clearance (37%) in rats
Experimental: as §1, with “Blood (0.3 mL) was collected from the retro-orbital plexus or the jugular vein at predetermined time-points (0, 0.33, 0.67, 1, 1.5, 2, 4, 6, 8, 12, and 24 h) after the oral administration. Samples were centrifuged at 15,000× g for 5 min at 4 °C.” left out
Pharmacokinetic data were analyzed based on the non-compartment analysis of WinNonlin software 8.1 (Pharsight Corp., Sunnyvale, CA, USA). The maximum plasma concentration of tadalafil (maximum concentration (Cmax)) and the time to reach the maximal plasma concentration (Tmax) of tadalafil were determined from the plasma concentration-time profiles. […]

[5] = Group T, ticagrelor-pretreated rats (10 mg/kg, 7 days)
[6] = rats, ticagrelor pretreatment, p < 0.05
[7] = rats, ticagrelor-pretreated vs non-pretreated
[8] = Group T, ticagrelor-pretreated rats
[9] = ticagrelor-pretreated vs non-pretreated rats

With `CN1CC(=O)N2[C@H](c3ccc4c(c3)OCO4)c3[nH]c4ccccc4c3C[C@@H]2C1=O` [tadalafil, Tadalafil] the Cmax ([1]; Group N, non-pretreated rats (vehicle 7 days)) was 376 ± 72.8 ng/mL, the AUC(0-inf) ([1]; Group N, non-pretreated rats) was 3070 ± 743 ng·h/mL and the CL/F ([1]; Group N, non-pretreated rats) was 11.3 mL/min/kg. The Tmax ([1]; Group N, non-pretreated rats) was 1.45 ± 0.5 h, the half-life ([1]; Group N, non-pretreated rats) was 3.15 ± 0.23 h and the AUC(0-t) ([1]; Group N, non-pretreated rats) was 3050 ± 732 ng·h/mL. The Cmax ([1]; Group T, ticagrelor-pretreated rats (10 mg/kg oral once a day, 7 days)) was 433 ± 120 ng/mL, the AUC(0-inf) [1, 5] was 5100 ± 1800 ng·h/mL and the CL/F [1, 5] was 7.17 mL/min/kg. It also gave a Tmax [1, 5] of 3.22 ± 1.3 h, a half-life [1, 5] of 4.47 ± 0.89 h and an AUC(0-t) [1, 5] of 4900 ± 1590 ng·h/mL. The “increase of AUC of tadalafil by co-administration with ticagrelor” value ([1]; rats, ticagrelor pretreatment) was “approximately 61%”, the “increase of Tmax, Group T compared to Group N” value ([1]; rats, ticagrelor pretreatment) was 2.22 fold and the “reduction of tadalafil clearance, Group T compared with Group N” value ([1]; rats, ticagrelor pretreatment) was 37%. The “increase of Cmax, Group T compared to Group N” value ([1]; rats, ticagrelor pretreatment, no significant difference (p = 0.3332)) was 1.15 fold, the “increase of AUC0–24 (systemic exposure), Group T compared to Group N” value [1, 6] was 1.61 fold and the “increase of AUC0–∞, Group T compared to Group N” value [1, 6] was 1.66 fold. For the same compound, the “AUC0–24 Ratio (Group T/Group N)” value [1, 7] was 1.61, the “AUC0–∞ Ratio (Group T/Group N)” value [1, 7] was 1.66 and the “CL/F Ratio (Group T/Group N)” value [1, 7] was 0.63. For the same compound, the “Cmax Ratio (Group T/Group N)” value [1, 7] was 1.15, the “T1/2 Ratio (Group T/Group N)” value [1, 7] was 1.42 and the “Tmax Ratio (Group T/Group N)” value [1, 7] was 2.22. It also gave a k el ([2]; Group N, non-pretreated rats) of 4.72e-05 s⁻¹, a k el [2, 8] of 3.61e-05 s⁻¹ and a Ka ([2]; Group N, non-pretreated rats) of 1.71 ± 0.91 h⁻¹. For the same compound, the V/F ([2]; Group N, non-pretreated rats) was 4.39 ± 0.78 L/kg and 4.39 ± 0.76 L/kg, the Ka [2, 8] was 1.14 ± 0.73 h⁻¹ and the V/F [2, 8] was 3.36 ± 0.95 L/kg. The “Ka Ratio (Group T/Group N)” value [2, 9] was 0.67, the “Ke Ratio (Group T/Group N)” value [2, 9] was 0.77 and the “V/F Ratio (Group T/Group N)” value [2, 9] was 0.77. The half-life ([3]; elderly men) was “about 21.6 h”, the half-life ([3]; normal healthy men, after administration) was “approximately 17.5 h” and the “clinical efficacy (duration)” value [4] was “up to 36 h”.
For `CCCSc1nc(N[C@@H]2C[C@H]2c2ccc(F)c(F)c2)c2nnn([C@@H]3C[C@H](OCCO)[C@@H](O)[C@H]3O)c2n1` [ticagrelor, Ticagrelor], the CYP3A inhibitor classification (CYP3A) was “weak CYP3A inhibitor”.
